Measured values from paper PMC5650530 (ACS chemical biology, 2017).

Legend:
[1] = target: T1, mSGPL1 (Mus musculus, UniProt Q8R0X7); assay: AEA-DA probe interactions with mSGPL1 in vitro; type: binding; settings: Fig. S3c
T1 sequence (Q8R0X7 1-568): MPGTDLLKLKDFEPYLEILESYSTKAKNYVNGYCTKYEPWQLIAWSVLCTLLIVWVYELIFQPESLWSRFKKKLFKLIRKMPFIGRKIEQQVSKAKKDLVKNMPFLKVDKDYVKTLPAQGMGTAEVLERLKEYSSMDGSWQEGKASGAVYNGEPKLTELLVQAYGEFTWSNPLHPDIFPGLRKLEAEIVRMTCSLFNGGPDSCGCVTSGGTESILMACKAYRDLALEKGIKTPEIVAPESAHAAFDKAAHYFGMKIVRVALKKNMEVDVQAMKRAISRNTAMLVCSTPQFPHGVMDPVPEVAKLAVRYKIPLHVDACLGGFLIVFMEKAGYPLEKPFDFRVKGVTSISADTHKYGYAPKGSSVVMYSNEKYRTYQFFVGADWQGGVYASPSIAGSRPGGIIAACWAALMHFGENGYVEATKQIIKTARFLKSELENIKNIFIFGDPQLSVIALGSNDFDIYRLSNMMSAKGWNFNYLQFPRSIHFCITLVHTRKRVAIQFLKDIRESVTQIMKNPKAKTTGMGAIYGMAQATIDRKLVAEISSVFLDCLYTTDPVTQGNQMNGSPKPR

[2] = system: rat OPC; assay: Monoculture rat OPC differentiation assay; settings: alone or in combination with miconazole
[3] = target: T2, ABHD5 (Homo sapiens, UniProt Q8WTS1); assay: LiPIP; type: binding; settings: ligand at both 5 and 25 μM; probe 10 μM; HEK293T cells
T2 sequence (Q8WTS1 1-349): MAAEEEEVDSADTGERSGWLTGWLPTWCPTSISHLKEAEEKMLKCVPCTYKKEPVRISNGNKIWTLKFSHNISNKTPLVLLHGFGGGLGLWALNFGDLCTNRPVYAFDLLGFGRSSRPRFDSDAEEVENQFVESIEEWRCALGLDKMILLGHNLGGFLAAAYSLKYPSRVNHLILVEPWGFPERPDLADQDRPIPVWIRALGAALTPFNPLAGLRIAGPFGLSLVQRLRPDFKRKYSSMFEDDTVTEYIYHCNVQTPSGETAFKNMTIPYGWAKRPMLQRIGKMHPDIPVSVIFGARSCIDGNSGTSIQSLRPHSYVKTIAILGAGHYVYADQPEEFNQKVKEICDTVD

[4] = target: T3, ABHD10 (Homo sapiens, UniProt Q9NUJ1); assay: LiPIP probe competition in HEK293T cells, off-target ABHD10; type: binding; settings: ligand 25 μM
T3 sequence (Q9NUJ1 53-306): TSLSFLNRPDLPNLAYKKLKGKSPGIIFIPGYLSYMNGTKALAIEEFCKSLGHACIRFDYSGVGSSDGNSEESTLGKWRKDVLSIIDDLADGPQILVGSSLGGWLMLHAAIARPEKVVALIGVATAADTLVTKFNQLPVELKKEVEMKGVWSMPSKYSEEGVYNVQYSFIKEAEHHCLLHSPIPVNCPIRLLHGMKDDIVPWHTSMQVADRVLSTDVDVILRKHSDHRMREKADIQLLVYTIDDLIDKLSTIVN

[5] = target: T4, PNPLA2 (Homo sapiens, UniProt Q96AD5); assay: LiPIP probe competition in HEK293T cells, PNPLA2; type: binding; settings: unaltered lipid probe enrichment ratio
T4 sequence (Q96AD5 1-504): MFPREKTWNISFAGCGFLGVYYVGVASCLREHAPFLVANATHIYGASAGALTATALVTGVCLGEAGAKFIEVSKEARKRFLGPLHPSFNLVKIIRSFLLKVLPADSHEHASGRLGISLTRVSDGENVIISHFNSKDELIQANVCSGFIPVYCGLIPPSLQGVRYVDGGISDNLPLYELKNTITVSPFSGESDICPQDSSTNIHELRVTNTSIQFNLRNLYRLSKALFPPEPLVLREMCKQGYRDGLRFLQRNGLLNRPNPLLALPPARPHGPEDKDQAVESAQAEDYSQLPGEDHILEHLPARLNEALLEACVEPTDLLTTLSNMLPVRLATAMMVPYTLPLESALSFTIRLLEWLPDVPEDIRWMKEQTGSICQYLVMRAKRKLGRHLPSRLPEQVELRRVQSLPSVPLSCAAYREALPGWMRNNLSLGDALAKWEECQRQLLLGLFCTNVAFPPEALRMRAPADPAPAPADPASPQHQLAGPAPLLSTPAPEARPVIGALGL

[6] = target: T5, EPHX2 (Homo sapiens, UniProt P34913); assay: LiPIP probe competition in HEK293T cells, off-target EPHX2; type: binding; settings: ligand 25 μM
T5 sequence (P34913 1-555): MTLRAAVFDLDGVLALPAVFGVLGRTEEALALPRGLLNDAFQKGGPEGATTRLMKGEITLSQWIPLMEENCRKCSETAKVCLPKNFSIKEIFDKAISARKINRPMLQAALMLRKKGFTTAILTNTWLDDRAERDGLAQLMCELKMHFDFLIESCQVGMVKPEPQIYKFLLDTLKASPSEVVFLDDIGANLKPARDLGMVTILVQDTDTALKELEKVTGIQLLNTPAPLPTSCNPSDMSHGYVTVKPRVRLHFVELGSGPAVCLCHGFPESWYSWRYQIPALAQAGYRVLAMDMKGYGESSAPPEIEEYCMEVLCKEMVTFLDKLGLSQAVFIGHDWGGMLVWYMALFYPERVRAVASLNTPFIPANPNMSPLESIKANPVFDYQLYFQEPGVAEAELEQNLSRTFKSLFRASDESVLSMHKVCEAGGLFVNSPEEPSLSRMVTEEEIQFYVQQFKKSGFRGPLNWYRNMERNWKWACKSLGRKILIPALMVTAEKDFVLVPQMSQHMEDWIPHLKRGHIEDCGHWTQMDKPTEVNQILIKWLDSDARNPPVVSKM

[7] = target: T6, hSGPL1 (Homo sapiens, UniProt O95470); type: biochemical
T6 sequence (O95470 1-568): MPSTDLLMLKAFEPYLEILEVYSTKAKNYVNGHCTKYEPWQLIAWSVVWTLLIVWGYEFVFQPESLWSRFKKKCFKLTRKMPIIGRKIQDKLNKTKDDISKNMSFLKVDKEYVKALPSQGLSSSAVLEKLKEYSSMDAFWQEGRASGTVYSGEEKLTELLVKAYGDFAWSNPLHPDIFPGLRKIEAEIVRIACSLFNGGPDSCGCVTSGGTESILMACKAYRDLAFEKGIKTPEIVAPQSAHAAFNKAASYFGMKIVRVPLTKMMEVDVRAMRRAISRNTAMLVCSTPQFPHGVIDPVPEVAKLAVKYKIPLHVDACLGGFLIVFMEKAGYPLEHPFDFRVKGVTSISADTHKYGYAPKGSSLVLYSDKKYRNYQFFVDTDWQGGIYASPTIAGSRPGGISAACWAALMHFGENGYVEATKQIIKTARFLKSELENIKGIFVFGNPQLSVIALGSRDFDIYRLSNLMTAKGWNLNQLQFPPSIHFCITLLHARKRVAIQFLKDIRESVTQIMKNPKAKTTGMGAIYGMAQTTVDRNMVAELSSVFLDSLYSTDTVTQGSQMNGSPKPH

[8] = system: Neuro2a cells; assay: Endogenous S1P content of Neuro2a cells by targeted LC-MS/MS; type: cell-based, mouse; settings: 6 h treatment
[9] = system: oligodendrocyte precursor cell (OPC); settings: cited from earlier work

blocking the A-DA or AEA-DA probe interaction with ABHD5 [3]	engagement of PNPLA2 (lipid probe enrichment ratio) [5]	SMILES	effect on OPC differentiation (MBP+ cells) [2]	further results
–	–	CCCCCCCCCCCCC/C=C/[C@@H](O)[C@@H](N)COP(=O)(O)O [S1P, sphingosine 1-phosphate]	–	blockade of AEA-DA probe interactions with mSGPL1 in vitro [1]: inhibited AEA-DA binding to SGPL1
–	–	CCCCCCCCc1ccc(CC[C@](N)(CO)COP(=O)(O)O)cc1 [(S)-pFTY720]	no impact on OPC differentiation	–
–	–	C[C@@H]1CN(c2nnc(Cc3ccccc3)c3ccc(C#N)cc23)CCN1c1ccc(C#N)cn1 [compound 11, (R)-1-benzyl-4-(4-(5-cyanopyridin-2-yl)-3-methylpiperazin-1-yl)phthalazine-6-carbonitrile]	did not promote OPC differentiation	–
> 80%	not directly engaged	Cc1ccc2c(CC(=O)N3CCN(S(=O)(=O)c4ccc5c(c4)OCCO5)CC3)coc2c1 [SR-4559]	–	SILAC ratio (LiPIP probe displacement), ABHD10 [4]: ≥ 3.0
> 80%	not directly engaged	CCCCNC(=O)Nc1ccc2c(c1)N(C)C(=O)c1ccccc1S2 [SR-4995]	–	SILAC ratio (LiPIP probe displacement), EPHX2 [6]: ≥ 3.0
–	–	Clc1ccc(COC(Cn2ccnc2)c2ccc(Cl)cc2Cl)c(Cl)c1 (centres unmarked) [miconazole]	promotion of rat OPC differentiation	IC50 [7]: 6.5 µM; maximal inhibition of hSGPL1 (plateau) ([7]; fluorogenic S1P substrate analog): 40%; effect on endogenous S1P content [8]: increased the endogenous S1P content; OPC differentiation by phenotypic screening [9]: promote oligodendrocyte precursor cell (OPC) differentiation
